Reference: US10080756B2, “Combination methods for treating cancers” (Gilead Sciences, Inc., priority 2014, dated 2018)
Read-outs that look alike come from different tables or passages of the source.

Experiments:
[1] = Cell Titer Glo viability assay, summary over all cell lines tested; format: cell-based; settings: B-cell; range over the 17 cell lines of Table 1; read-out: EC50 values to inhibit cell viability, range over cell lines
Protocol: (§1) All procedures were performed at Gilead Sciences, Inc. in Branford, The compound of formula (I), cyclophosphamide, doxorubicin and vincristine sulfate were dissolved in DMSO to prepare stock solutions that were serially diluted three-fold in DMSO in a 96 well plate format at 1000× so the final starting assay concentrations tested would be 10 μM, 200 μM, 10 μM, and 1 μM respectively, for each compound. Compound plates were diluted 1:100 in RPMI without serum or additives creating a 10× stock. Cells were seeded into a 96-well plate at 10,000-20,000 cells per well in 100 μl of growth media appropriate to the cell line supplemented with 100 U/L penicillin-streptomycin. OCI-Ly3, OCI-Ly4 and OCI-Ly7 were grown in Iscove's+20% FBS, OCI-Ly19 was grown in alphaMEM+20% FBS, and all other cell lines were grown in RPMI+10% FBS. To each well, 11 μl of 10× compound was added in a final concentration of 0.1% DMSO and cells were incubated at 37° C. in 5% CO2 for 72 hours. Cell viability was assessed with Cell Titer Glo (Promega, Madison, Wis.) following the manufacturer's protocol on an Envision plate reader (Perkin Elmer, Waltham, Mass.). EC50 values were determined using a four parameter variable slope model with GraphPad Prism 6.0 software. All EC50 values represent mean values of from duplicate dose response curves.

DHL-10 = test: Cell Titer Glo viability assay, DHL-10, alone or with compound of Formula I (Example 3)
Protocol: All procedures were performed at Gilead Sciences, Inc. in Branford, Conn. […] Compound plates were diluted 1:100 in RPMI without serum or additives but containing either 1% DMSO or 3 μM of the compound of Formula I creating a 10× stock. The DLBCL cell line, DHL-10 was plated at 10,000 cells per well in RPMI supplemented with 10% FBS and 100 U/L penicillin-streptomycin. To each well containing cells, 11 μl of 10× compound mixture in serum-free media was added in a final concentration of 0.2% DMSO and cells were incubated at 37° C. in 5% CO2 for 72 hours. Cell viability was assessed using Cell Titer Glo (CTG, Promega, Madison, Wis.) following the manufacturer's protocol on an Envision plate reader (Perkin Elmer, Waltham, Mass.). CTG signals were recorded for individual compound treatments and combinations. EC50 values were determined using a four parameter variable slope model with GraphPad Prism 6.0 software.

[2] = tested on: 10 diffuse large B-cell lymphoma (DLBCL), 4 multiple myeloma (MM), 2 follicular lymphoma (FL), and 1 mantle cell lymphoma (MCL) cell lines; test: Cell Titer Glo viability assay, summary over all cell lines tested; format: cell-based; settings: at concentrations <3000 nM
Protocol: as §1

[3] = Plasma levels in SU-DHL-10 xenograft study; format: in vivo, mouse
Protocol: On the 16th day post-tumor implantation, animals with established tumors (n=9 animals per group) were treated for 3 days by oral gavage with either vehicle or Entospletinib at 75 mg/kg or 25 mg/kg twice daily (BID). […] This dose level is designated 75/50 mg/kg.
Efficacy was evaluated by tumor volume measurements. Plasma levels of Entospletinib and vincristine were evaluated on the third day of dosing Entospletinib (Day 19) and the last day of dosing (Day 32). Tolerability was evaluated by daily observations, body weight (3 times per week) and circulating blood cell counts at the end of the study.

**Q.** Which results are given for `CC[C@]1(O)C[C@H]2CN(CCc3c([nH]c4ccccc34)[C@@](C(=O)OC)(c3cc4c(cc3OC)N(C=O)[C@H]3[C@@](O)(C(=O)OC)[C@H](OC(C)=O)[C@]5(CC)C=CCN6CC[C@]43[C@@H]65)C2)C1` [Vincristine, vincristine]?
**A.** EC50 [1]: ≤ 103 nM; EC50 (DHL-10; Homo sapiens, 72 h, read-out: Inhibition of cell viability EC50, No Compound of Formula I): 14.1 nM; EC50 (DHL-10; read-out: Inhibition of cell viability EC50, +300 nM Compound of Formula I, DHL-10, in combination with 300 nM compound of Formula I, 72 hours): 3.5 nM

**Q.** With `c1cn2cc(-c3ccc4cn[nH]c4c3)nc(Nc3ccc(N4CCOCC4)cc3)c2n1` [Compound of Formula I, 6-(1H-indazol-6-yl)-N-(4-morpholinophenyl)imidazo[1,2-a]pyrazin-8-amine] as the compound, how does the “inhibition of cell viability in any of the cell lines tested” value [2] read?
**A.** did not show inhibition cell viability

**Q.** What about the “plasma concentrations on the third day of dosing” value ([3]; 75 mg/kg BID) of the same compound?
**A.** higher than planned plasma concentrations

**Q.** And the “plasma concentrations at the end of study at Cmin (trough)” value ([3]; 25 and 50 mg/kg BID, respectively, compared with mouse whole blood values for inhibition of SYK)?
**A.** exceed the in vitro pervanadate-stimulated mouse whole blood EC50 and EC50 values for inhibition of SYK
